Results from PMC7129916 (Clinical Microbiology and Infection, 2015).
In brackets after ≈: the same amount, converted by molar mass. Like-named read-outs stand apart in the source and are kept apart here. Each block holds one molecule with its values, some of them ahead of it.

Assays:
Streptococcus pneumoniae = experiment: microbe, parasite or virus in culture; type: cell-based, S. pneumoniae
S. aureus (SA) [1] = experiment: microbe, parasite or virus in culture; type: cell-based; conditions: Staphylococcus aureus
[2] = test system: Coag neg staphylococci (CoNS); experiment: organism not typed; type: cell-based
Enterococcus spp. (ESP) = experiment: microbe, parasite or virus in culture; type: cell-based
S pneumoniae (SPN) = experiment: microbe, parasite or virus in culture; type: cell-based
[3] = test system: Viridans group streptococci (VGS); experiment: organism not typed; type: cell-based
Enterobacteriaceae (ENT) = experiment: organism not typed; type: cell-based
E. coli ESBL = experiment: microbe, parasite or virus in culture; type: cell-based
Klebsiella spp. ESBL = experiment: microbe, parasite or virus in culture; type: cell-based
[4] = test system: all resistant organism subsets; type: cell-based
[5] = test system: S. aureus and/or streptococci; conditions: 30 of 35 pts
S. pneumoniae (SPN) [6] = test system: S. pneumoniae (SPN)
H. influenzae (Hi) [7] = test system: H. influenzae (Hi)
Enterobacter spp. (ENT) [8] = test system: Enterobacter spp. (ENT)
beta-streptococci (BST) = experiment: organism not typed
[9] = test system: S. aureus and/or streptococcal baseline pathogens; experiment: microbe, parasite or virus in culture; conditions: Staphylococcus aureus, read-out: MIC values
S. pneumoniae (SPN) [10] = experiment: microbe, parasite or virus in culture; conditions: Streptococcus pneumoniae
H. influenzae (Hi) [11] = experiment: microbe, parasite or virus in culture; conditions: Haemophilus influenzae
M. catarrhalis (MCAT) = experiment: microbe, parasite or virus in culture; conditions: Moraxella catarrhalis
S. aureus (SA) [12] = experiment: microbe, parasite or virus in culture; conditions: Staphylococcus aureus
Klebsiella spp. (KSP) = experiment: microbe, parasite or virus in culture
Enterobacter spp. (ENT) [13] = experiment: microbe, parasite or virus in culture
Acinetobacter spp. (AC) = experiment: microbe, parasite or virus in culture
E. coli (EC) = experiment: microbe, parasite or virus in culture; conditions: Escherichia coli
Serratia spp. (SER) = experiment: microbe, parasite or virus in culture
P. aeruginosa (PSA) = experiment: microbe, parasite or virus in culture; conditions: Pseudomonas aeruginosa
S. pneumoniae [14] = experiment: microbe, parasite or virus in culture; type: cell-based; conditions: Streptococcus pneumoniae
H. influenzae [15] = experiment: microbe, parasite or virus in culture; type: cell-based; conditions: Haemophilus influenzae
M. catarrhalis [16] = experiment: microbe, parasite or virus in culture; type: cell-based
S. aureus MSSA = experiment: microbe, parasite or virus in culture; type: cell-based; conditions: Staphylococcus aureus
S. aureus MRSA = experiment: microbe, parasite or virus in culture; type: cell-based; conditions: Staphylococcus aureus
K. pneumoniae = experiment: microbe, parasite or virus in culture; type: cell-based; conditions: Klebsiella pneumoniae
S. pneumoniae (Sp) = experiment: microbe, parasite or virus in culture; type: cell-based; conditions: Streptococcus pneumoniae
Porphyromonas gingivalis = experiment: microbe, parasite or virus in culture; type: cell-based, P. gingivalis; conditions: read-out: MIC of mutants
[17] = test system: intracellular P. gingivalis in KB cells; type: cell-based
S. pneumoniae [18] = test system: S. pneumoniae
[19] = 90% CI 86 to 97%
MSSA [20] = test system: MSSA
MSSA [21] = experiment: microbe, parasite or virus in culture; conditions: Staphylococcus aureus
MRSA = experiment: microbe, parasite or virus in culture; conditions: Staphylococcus aureus
[22] = in vivo
H. influenzae [23] = experiment: microbe, parasite or virus in culture; type: cell-based; conditions: Haemophilus influenzae; remark: listed apart in the source
M. catarrhalis [24] = experiment: microbe, parasite or virus in culture; type: cell-based; conditions: Moraxella catarrhalis
[25] = parameters: species or system human; conditions: in vivo

MIC (Streptococcus pneumoniae): 4 µg/mL (≈ 4.93 µM)
Structure (SMILES): CC[C@H]1OC(=O)[C@H](C)C(=O)[C@H](C)[C@@H](O[C@@H]2O[C@H](C)C[C@H](N(C)C)[C@H]2O)[C@](C)(OC)C[C@@H](C)C(=O)[C@H](C)[C@H]2N(CCCCn3cnc(-c4cccnc4)c3)C(=O)O[C@]12C [telithromycin]

MIC50 (S. aureus (SA) [1]): 0.25 µg/mL (≈ 0.427 µM)
MIC90 (S. aureus (SA) [1]): 0.5 µg/mL (≈ 0.854 µM)
MIC50 [2]: ≤ 0.12 µg/mL
MIC90 [2]: 0.5 µg/mL (≈ 0.854 µM)
MIC50 (Enterococcus spp. (ESP); Enterococcus): ≤ 0.12 µg/mL
MIC90 (Enterococcus spp. (ESP); Enterococcus): 0.25 µg/mL (≈ 0.427 µM)
MIC 50% (Enterococcus spp. (ESP); Van B (95)): ≤ 0.12 mg/L
MIC 90% (Enterococcus spp. (ESP); Van B (95)): 0.25 mg/L (≈ 0.427 µM)
MIC 50% (S pneumoniae (SPN); CIP-R (171)): ≤ 0.12 mg/L
MIC50 (S pneumoniae (SPN); Streptococcus pneumoniae): ≤ 0.12 µg/mL
MIC90 (S pneumoniae (SPN); Streptococcus pneumoniae, CIP-R (171)): ≤ 0.12 µg/mL
MIC90 (S pneumoniae (SPN); Streptococcus pneumoniae, TET R (733)): ≤ 0.12 µg/mL
MIC90 (S pneumoniae (SPN); Streptococcus pneumoniae, […]): 0.12 µg/mL (≈ 0.205 µM)
MIC 50% (S pneumoniae (SPN); TET R (733)): ≤ 0.12 mg/L
MIC50 [3]: ≤ 0.12 µg/mL
MIC90 [3]: 0.12 µg/mL (≈ 0.205 µM)
MIC50 (Enterobacteriaceae (ENT)): 0.5 µg/mL (≈ 0.854 µM)
MIC 50% (Enterobacteriaceae (ENT)): 0.25 mg/L (≈ 0.427 µM)
MIC90 (Enterobacteriaceae (ENT)): 4 µg/mL (≈ 6.83 µM)
MIC 90% (Enterobacteriaceae (ENT)): 2 mg/L (≈ 3.41 µM)
MIC50 (E. coli ESBL; Escherichia coli): 0.25 µg/mL (≈ 0.427 µM)
MIC90 (E. coli ESBL; Escherichia coli): 0.5 µg/mL (≈ 0.854 µM)
MIC50 (Klebsiella spp. ESBL; Klebsiella): 0.5 µg/mL (≈ 0.854 µM)
MIC90 (Klebsiella spp. ESBL; Klebsiella): 2 µg/mL (≈ 3.41 µM)
MIC90 (S. pneumoniae (SPN) [6]; NP): ≤0.12/≤0.12 mg/L
MIC50 (S. pneumoniae (SPN) [6]; NP (117)): ≤0.12/≤0.12 mg/L
MIC90 (H. influenzae (Hi) [7]; NP): 1 mg/L (≈ 1.71 µM)
MIC50 (H. influenzae (Hi) [7]; NP (16)): 0.5 mg/L (≈ 0.854 µM)
MIC50 (beta-streptococci (BST)): ≤ 0.12 µg/mL
MIC90 (beta-streptococci (BST)): ≤ 0.12 µg/mL
MIC [9]: 0.06 to 0.5 µg/mL (≈ 0.102 to 0.854 µM)
MIC50 (S. pneumoniae (SPN) [10]): ≤ 0.12 µg/mL
MIC90 (S. pneumoniae (SPN) [10]): ≤ 0.12 µg/mL
MIC50 (H. influenzae (Hi) [11]): 0.5 µg/mL (≈ 0.854 µM)
MIC90 (H. influenzae (Hi) [11]): 1 µg/mL (≈ 1.71 µM)
MIC90 (M. catarrhalis (MCAT)): 0.25 µg/mL (≈ 0.427 µM)
MIC50 (M. catarrhalis (MCAT); CARTI (600)): ≤ 0.12 µg/mL
MIC50 (M. catarrhalis (MCAT); NP (7)): 0.25 µg/mL (≈ 0.427 µM)
MIC50 (S. aureus (SA) [12]): 0.25 µg/mL (≈ 0.427 µM)
MIC90 (S. aureus (SA) [12]): 0.5 µg/mL (≈ 0.854 µM)
MIC50 (Klebsiella spp. (KSP)): 0.5 µg/mL (≈ 0.854 µM)
MIC90 (Klebsiella spp. (KSP)): 1 µg/mL (≈ 1.71 µM)
MIC (Klebsiella spp. (KSP); read-out: MICs): ≤ 2 µg/mL
MIC50 (Enterobacter spp. (ENT) [13]): 0.5 µg/mL (≈ 0.854 µM)
MIC90 (Enterobacter spp. (ENT) [13]): 2 µg/mL (≈ 3.41 µM)
MIC50 (Acinetobacter spp. (AC)): 1 µg/mL (≈ 1.71 µM)
MIC90 (Acinetobacter spp. (AC)): 4 µg/mL (≈ 6.83 µM)
MIC50 (E. coli (EC)): 0.25 µg/mL (≈ 0.427 µM)
MIC90 (E. coli (EC)): 0.5 µg/mL (≈ 0.854 µM)
MIC (E. coli (EC); read-out: MICs): ≤ 2 µg/mL
MIC50 (Serratia spp. (SER)): 1 µg/mL (≈ 1.71 µM)
MIC90 (Serratia spp. (SER)): 4 µg/mL (≈ 6.83 µM)
MIC90 (P. aeruginosa (PSA)): 16 µg/mL (≈ 27.3 µM)
Structure (SMILES): CN(C)c1cc(NC(=O)CNC(C)(C)C)c(O)c2c1C[C@H]1C[C@H]3[C@H](N(C)C)C(O)=C(C(N)=O)C(=O)[C@@]3(O)C(O)=C1C2=O [tigecycline]
% inhibited at ≤ 2 mg/L (S pneumoniae (SPN); CIP-R (171)): 100%
% inhibited at ≤ 2 mg/L (S pneumoniae (SPN); TET R (733)): >99%
% inhibited at ≤ 4 mg/L (S pneumoniae (SPN); TET R (733)): >99%
% inhibited at ≤ 2 mg/L (S pneumoniae (SPN); […]): 100%
% inhibited at ≤ 4 mg/L (Enterobacteriaceae (ENT)): 98%
% inhibited at ≤ 2 mg/L (E. coli ESBL; (279)): >99%
% inhibited at ≤ 4 mg/L (E. coli ESBL; (279)): 100%
% inhibited at ≤ 4 mg/L (Klebsiella spp. ESBL; (317)): 100%
Total % Inhibited at ≤ 2 mg/L [4]: 97%
Total % Inhibited at ≤ 4 mg/L [4]: >99%
clinical cure [5]: 85.7%
% ≤2 mg/L (Enterobacter spp. (ENT) [8]): 98%
% ≤4 mg/L (Enterobacter spp. (ENT) [8]): 100%

Structure (SMILES): COc1c(N2C[C@@H]3CCCN[C@@H]3C2)c(F)cc2c(=O)c(C(=O)O)cn(C3CC3)c12 [moxifloxacin]
MIC90 (S. pneumoniae [14]): 0.19 µg/mL (≈ 0.473 µM)
MIC90 (H. influenzae [15]): 0.125 µg/mL (≈ 0.311 µM)
susceptible (%) (M. catarrhalis [16]): 100%
MIC90 (M. catarrhalis [16]; Moraxella catarrhalis): 0.125 µg/mL (≈ 0.311 µM)
MIC90 (S. aureus MSSA): 1 µg/mL (≈ 2.49 µM)
MIC90 (S. aureus MRSA): 8 µg/mL (≈ 19.9 µM)
MIC90 (K. pneumoniae): 0.75 µg/mL (≈ 1.87 µM)
MIC90 (S. pneumoniae (Sp)): 0.25 µg/mL (≈ 0.623 µM)
MIC (Porphyromonas gingivalis): > 32 µg/mL
concentration killing all intracellular P. gingivalis [17]: 100 fold MIC
%I (S. pneumoniae [18]; 2002 (n = 103)): 3%
%R (S. pneumoniae [18]; 2002 (n = 103)): 1%
%S (S. pneumoniae [18]; 2002 (n = 103)): 96%
%I (S. pneumoniae [18]; 2003 (n = 137)): 0%
%R (S. pneumoniae [18]; 2003 (n = 137)): 1.5%
%S (S. pneumoniae [18]; 2003 (n = 137)): 98.5%
%I (S. pneumoniae [18]; 2004 (n = 110)): 0%
%R (S. pneumoniae [18]; 2004 (n = 110)): 0%
%S (S. pneumoniae [18]; 2004 (n = 110)): 100%
AUC point estimate B/A [19]: 91%
AUC point estimate C/A [19]: 91%
more active than ciprofloxacin (MSSA [20]): 4 fold
MIC50 (MSSA [21]): 0.25 µg/mL (≈ 0.623 µM)
MIC90 (MRSA): ≥ 16 µg/mL

concomitant drug bioavailability (AUC %) with POS vs alone [22]: 458%
Structure (SMILES): C=CC[C@@H]1/C=C(\C)C[C@H](C)C[C@H](OC)[C@H]2O[C@@](O)(C(=O)C(=O)N3CCCC[C@H]3C(=O)O[C@H](/C(C)=C/[C@@H]3CC[C@@H](O)[C@H](OC)C3)[C@H](C)[C@@H](O)CC1=O)[C@H](C)C[C@@H]2OC [Tacrolimus, tacrolimus]

MIC50 (H. influenzae [23]): ≤ 0.03 µg/mL
MIC50 (M. catarrhalis [24]): ≤ 0.03 µg/mL
Structure (SMILES): COc1c(N2CCNC(C)C2)c(F)cc2c(=O)c(C(=O)O)cn(C3CC3)c12 (centres unmarked) [GFX, gatifloxacin]

Structure (SMILES): C[C@@H](O)[C@H]1C(=O)N2C(C(=O)O)=C(S[C@@H]3CN[C@H](C(=O)Nc4cccc(C(=O)O)c4)C3)[C@H](C)[C@H]12 [ETP]
Adjusted LOS [25]: 11.9
